Assay results as given in patent publication US7220745B2, “Heterocyclic compounds useful to treat HCV” (Rigel Pharmaceuticals, priority 2003, dated 2007).

These compounds were tested on HCV replicon (assay: HCV replicon assay (luciferase, 5-2 Luc replicon cells)). Details: Hepatitis C virus, 24 hours with compound, luciferase activity.
Format: cell-based
Source text: In one embodiment, the inhibitory activity of the compounds can be confirmed in a replicon assay that assesses the ability of a test compound to block or inhibit HCV replication in replicon cells. One example of a suitable replicon assay is the liver cell-line Huh 7-based replicon assay described in Lohmann et al., 1999, Science 285:110–113. A specific example of this replicon assay which utilizes luciferase translation is provided in the Examples Section. In one embodiment of this assay, the amount of test compound that yields a 50% reduction in translation as compared to a control cell (IC50) may be determined.
The inhibitory activity of certain exemplary compounds of the invention was confirmed using an HCV replicon assay. The HCV replicon can include such features as the HCV 5′ untranslated region including the HCV IRES, the HCV 3′ untranslated region, selected HCV genes encoding HCV polypeptides, selectable markers, and a reporter gene such as luciferase, GFP, etc. In the assay, actively dividing 5–2 Luc replicon-comprising cells (obtained from Ralf Bartenschlager; see Lohmann et al., 1999, Science 285:110–113) were seeded at a density of between about 5,000 and 7,500 cells/well onto 96 well plates (about 90 μl of cells per well) and incubated at 37° C. and 5% CO2 for 24 hours. Then, the test compound (in a volume of about 10 μl) was added to the wells at various concentrations and the cells were incubated for an additional 24 hours before luciferase assay. Briefly, the Bright-Glo reagent was diluted 1:1 with PBS and 100 μl of diluted reagent was added to each well. After 5 min of incubation at room temperature, luciferin emission was quantified with a luminometer. In this assay, the amount of test compound that yielded a 50% reduction in luciferase activity (IC50) was determined.
`O=[N+]([O-])c1cccc(-c2cnc(-c3c(Cl)cccc3Cl)s2)c1` [Compound 17, 2-(2,6-dichlorophenyl)-5-(3-nitrophenyl)thiazole] gave an IC50 of over 10 µM.
For `O=C(Nc1ccccc1-c1cc(-c2c(Cl)cccc2Cl)no1)C(Cl)Cl` [Compound 18, 2,2-Dichloro-N-[2-[3-(2,6-dichlorophenyl)-5-isoxazolyl]phenyl]Acetamide], the IC50 was over 10 µM.
In the case of `O=C(Nc1cccc(-c2cnc(-c3c(Cl)cccc3Cl)s2)c1)C(Cl)Cl` [Compound 19, 2,2-Dichloro-N-[3-[2-(2,6-dichlorophenyl)-5-thiazolyl]phenyl]Acetamide], the IC50 is reported as over 10 µM.
Work on `Nc1cccc(-c2cnc(-c3c(Cl)cccc3Cl)s2)c1` [Compound 20, 2-(2,6-dichlorophenyl)-5-(3-aminophenyl)thiazole] yielded an IC50 of over 10 µM.
`O=C(Nc1cccc(-c2cc(-c3c(Cl)cccc3Cl)on2)c1)C(Cl)Cl` [Compound 39, 2,2-Dichloro-N-[3-[5-(2,6-dichlorophenyl)-3-isoxazolyl]phenyl]Acetamide] gave an IC50 of under 10 µM.
Compound `O=C(Nc1ccc(-c2cc(-c3ccccc3Cl)no2)cc1)C(Cl)Cl` [Compound 55, 2,2-Dichloro-N-[4-[3-(2-chlorophenyl)-5-isoxazolyl]phenyl]Acetamide] has an IC50 of at most 10 µM.
In the case of `O=C(Nc1ccc(-c2cc(-c3c(F)cccc3F)no2)cc1)C(Cl)Cl` [Compound 59, 2,2-Dichloro-N-[4-[3-(2,6-difluorophenyl)-5-isoxazolyl]phenyl]Acetamide], the IC50 is reported as at most 10 µM.
For `O=C(Nc1ccc(-c2cc(-c3c(Cl)cccc3Cl)no2)cc1)C(Cl)Cl` [Compound 60, 2,2-Dichloro-N-[4-[3-(2,6-dichlorophenyl)-5-isoxazolyl]phenyl]Acetamide], the IC50 was over 10 µM.
